Measurements taken from patent US20070225278A1, “Methods for treating cognitive and other disorders” (priority 2006, published 2007).

How the values were obtained:
[1] = Antidepressant-like effects (MED), Table 2; assay type: in vivo; details: minimal effective dose
Description: Table 2, below, summarizes the dose at which antidepressant-like effects are observed, the dose at which sexual dysfunction occurs, and the therapeutic window.

[2] = system: male Sprague-Dawley rats; assay type: in vivo, rat; details: for Sexual dysfunction (MED mg/kg): male, Sprague-Dawley, rat, in vivo, 30 min; for reduction of the number of penile erections relative to vehicle treated animals: sexually experienced male rats, female stimuli present, i.p. once daily
Description: In summary, male rats were allowed access to sexually receptive females during a single overnight mating session and then administered antidepressants with varying degrees of clinically reported sexual deficits. […] Animals
Intact male Sprague-Dawley rats (Charles River Laboratories) arrived at 7 weeks of age and were allowed to habituate for one week prior to sexual experience or behavioral testing. Rats were group housed in same-sex colony rooms with food and water provided ad libitum. All animals were maintained under a 12:12 light-dark cycle (lights on at 6:00 am) with behavioral experiments performed during the light hours beginning at noon.
Ovariectomized female Long-Evans rats (Charles River Laboratories) were individually housed and brought into behavioral estrus weekly by subcutaneous injection of 25 ug 17-B estradiol benzoate in 0.1 ml corn oil 48 hours prior to testing, followed by subcutaneous administration of 2.5 mg progesterone in 0.1 ml corn oil 4 to 6 hours before testing.
For subjects assigned into the sexually experienced group, the following procedures were performed. Individual male rats were placed into the home cage of a a sexually receptive female for overnight mating sessions. The cage was a Plexiglas cage measuring 10×12 inches, with food and water ad libitum. Mating pairs were randomly assigned. […] Following overnight mating sessions, males and females were separated from each other and placed back into same-sex colony rooms where they were group-housed until the time of behavioral testing.
To determine the effects of female stimuli on non-contact penile erections, sexually receptive females were brought into the testing room 30 minutes prior to the start of behavioral testing in order to provide female visual, olfactory, and auditory stimuli for males. The testing arena for observing non-contact penile erections in male rats consisted of an empty rat size Plexiglas cage (11×10 inches) containing no bedding, with an aerated plastic lid and a total ceiling height of 12 inches. […] A penile erection consisted of observation of the male rat in a hunched position grasping the penis with the forepaws and followed by a series of pelvic thrusts. The number of penile erections were quantified over a 30 minute observation session.
Following sexual experience (as described above), male subjects (n=8 per group) were administered either 10 mg/kg/day fluoxetine or saline vehicle for 14 days. On the 14th day, fluoxetine treatment was co-administered with either saline or apomorphine (0.1-0.3 mg/kg, sc) or yohimbine (0.1-0.3 mg/kg, sc) or sildenafil (0.1-0.3 mg/kg, sc) in separate experiments. Non-contact penile erections were evaluated in 30 minute test sessions in the presence of sexually receptive female rats.
Fluoxetine HCl (Tocris), desipramine (Sigma, St. Louis, Mo.) and bupropion HCl (Toronto Research Chemicals, Canada) were dissolved in 0.9% sterile saline vehicle and injected intraperitoneally (i.p.) once daily. On the day of behavioral testing, antidepressants were administered intraperitoneally (i.p.) as one hour pretreatments. For reversal experiments, apomorphine (Sigma, St. Louis, Mo.), yohimbine (Sigma, St. Louis, Mo.) or sildenafil (Toronto Research Chemicals, Canada) were used. Apomorphine was dissolved in 0.9% sterile saline vehicle and injected subcutaneously (s.c.). Yohimbine was dissolved in dH2O facilitated with 1N HCl, followed by addition of 1N NaOH for titration (pH=7) and administered intraperitoneally (i.p.). Sildenafil was dissolved in 0.9% sterile saline vehicle and administered intraperitoneally (i.p.). With the exception of fluoxetine which was administered in a dose volume of 2 ml/kg, all other test compounds were administered in a dose volume of 1 ml/kg. On the day of behavioral testing, both fluoxetine and the reversal agent (apomorphine, yohimbine, or sildenafil) were co-administered as 0 minute pretreatments. […]

[3] = system: male Sprague Dawley CD rats; assay: Reversal of MK-801 induced deficits in PPI; details: data generated within the applicant's lab, doses not given

Compound | Antidepressant-like effects (MED mg/kg) [1] [mg/kg] | Sexual dysfunction (MED mg/kg) [2] [mg/kg] | reduction of the number of penile erections relative to vehicle treated animals [2] [%] | attenuation of MK-801 induced deficit in PPI (reference antipsychotics) [3]
CC(NC(C)(C)C)C(=O)c1cccc(Cl)c1 (stereo not shown) [Bupropion, bupropion] | 20 | >20 | 9 | –
CNCCCN1c2ccccc2CCc2ccccc21 [Desipramine, desipramine] | 10 | 10 | 43 | –
CNCCC(Oc1ccc(C(F)(F)F)cc1)c1ccccc1 (stereo not shown) [Fluoxetine, fluoxetine] | 10 | 10 | 72 | –
Cc1nc2n(c(=O)c1CCN1CCC(c3noc4cc(F)ccc34)CC1)CCCC2 [risperidone, reference compound] | – | – | – | will attenuate
